Test results taken from patent US20100221200A1, “COMPOSITIONS AND METHODS FOR SKIN CARE” (THE OHIO STATE UNIVERSITY RESEARCH FOUNDATION, priority 2007, published 2010).
Square brackets hold non-standard residues; d marks the D form. Peptide text beside a SMILES is read from it.

Assays:
[1] = system: summer-active ground squirrels; settings: administered to summer-active ground squirrels; cited from earlier work
[2] = system: isolated or transplanted organs including heart, lung and kidneys; settings: cited from earlier work
[3] = system: skin of the malar surface of the face; assay: Blinded split-face topical application of deltorphin cream: skin appearance and wrinkles; format: in vivo
Protocol: (§1) A test subject (body weight ˜71 kg) received an application of 10 μg deltorphin, constituted in an inert base, to the malar surface on the left side of the face extending from the periorbital region to the mandible. The inert base (without the deltorphin) was applied to the right side of the face but the subject was blind to which cream contained the deltorphin. The cream was applied twice daily, in the morning and night. After 3 weeks, the subject was observed.
A test subject (˜55 kg) received an application of 1 μg of deltorphin in an inert base to the malar surface of the right side of the face, with an identical inert cream applied to the left in a blinded fashion (the subject was unaware of which cream contained the active peptide). After three weeks of morning and evening application of the cream (no other topical agents were applied), the subject was scored for appearance.
(§2) A test subject (˜61 kg) received an application of 100 μg of deltorphin in an inert base to the malar surface on the right side, with an equal amount of inert base, but no active peptide, applied blindly to the left side of the face. The two creams were applied twice daily, morning and night, for three weeks prior to being observed.

[4] = system: skin of the malar surface of the face; assay: Blinded split-face topical application of deltorphin cream: local tolerance (irritation, allergy); format: in vivo
Protocol: as §1, §2

[5] = Example 1: subject, 10 μg deltorphin in inert base, twice daily, 3 weeks
[6] = Example 3: subject, 100 μg deltorphin in inert base, twice daily, three weeks

For `CC(C)C[C@@H](NC(=O)[C@H](Cc1ccccc1)NC(=O)CNC(=O)[C@@H](C)NC(=O)[C@@H](N)Cc1ccc(O)cc1)C(=O)O` [DADLE, Tyr-D-Ala-Gly-Phe-D-Leu], which induction of hibernation [1] is on record?
Its induction of hibernation is “induces hibernation”.

What about the “viability and preservation of organs” value [2] of the same compound?
The value was “improves the viability and preservation”.

For `CSCC[C@H](NC(=O)[C@H](CC(C)C)NC(=O)[C@H](Cc1c[nH]cn1)NC(=O)[C@H](Cc1ccccc1)NC(=O)[C@@H](CCSC)NC(=O)[C@@H](N)Cc1ccc(O)cc1)C(=O)N[C@@H](CC(=O)O)C(N)=O` [deltorphin, Tyr-D-Met-Phe-His-Leu-Met-Asp-NH2] (H-Y[dM]FHLMD-NH2), which “appearance of treated side of the face versus inert-base side” value ([3]; Example 1: subject, 10 μg deltorphin in inert base, left side, twice daily, 3 weeks) is on record?
Its value is “noticeable improved appearance”.

What about the “wrinkles (fine and moderate)” value [3, 5] of the same compound?
The value was “appeared diminished”.

And the “wrinkles, particularly in the periorbital region” value ([3]; Example 2: subject, 1 μg deltorphin in inert base, morning and evening, three weeks)?
The value was “marked reduction in wrinkles”.

What about the “appearance of treated side of the face versus inert-base side” value ([3]; Example 2: subject, 1 μg deltorphin in inert base, right side, morning and evening, three weeks) of the same compound?
The value was “noticeable difference was apparent”.

What about the “appearance of treated side of the face versus inert-base side” value ([3]; Example 3: subject, 100 μg deltorphin in inert base, right side, twice daily, three weeks) of the same compound?
Its value is “significant and visible improvements”.

What about the “wrinkles (fine and deep)” value [3, 6] of the same compound?
The value was “readily notable improvements and diminishment in wrinkles”.

Which “signs of irritation, redness, heat or swelling” value [4, 5] does the source give for `CSCC[C@H](NC(=O)[C@H](CC(C)C)NC(=O)[C@H](Cc1cnc[nH]1)NC(=O)[C@H](Cc1ccccc1)NC(=O)[C@@H](CCSC)NC(=O)[C@@H](N)Cc1ccc(O)cc1)C(=O)N[C@@H](CC(=O)O)C(N)=O` [deltorphin, Tyr-D-Met-Phe-His-Leu-Met-Asp-NH2] (H-Y[dM]FHLMD-NH2) here?
Its value is “no sign of any irritation, no redness, heat or swelling”.

And the “eye irritation after inadvertent contact of the cream with the eye” value ([4]; Example 3: subject, 100 μg deltorphin cream, one occasion, subject's report)?
The value was “without any significant eye irritation or redness”.

What about the “signs of allergy, hypersensitivity or irritation (redness, swelling, heat, pruritus)” value [4, 6] of the same compound?
The value was “no signs of any allergy, hypersensitivity or irritation”.
